According to article PMC8387526, “Small peptide-based GLP-1R ligands: an approach to reduce the kidney uptake of radiolabeled GLP-1R-targeting agents?” (EJNMMI Radiopharmacy and Chemistry, 2021):
Entries after “also recorded” stand apart in the source; their conditions may differ. Values belong to the molecule of their own block, whether it stands above or below them. Square brackets hold non-standard residues; d marks the D form. Peptide text beside a SMILES is read from it. * marks the point of attachment. Benzoyl(4-SiFtBu2) = CC(C)(C)[Si](F)(c1ccc(C(=O)*)cc1)C(C)(C)C; αMePhe(2-F) = C[C@](N)(Cc1ccccc1F)C(=O)O; hPhe = N[C@@H](CCc1ccccc1)C(=O)O; Dap = NC[C@H](N)C(=O)O; Aib = CC(C)(N)C(=O)O

Experiments:
[1] = parameters: method as in Gotthardt et al., 2007; conditions: rats, pre-administration; ref Gotthardt et al., 2007; cited from earlier work
human GLP-1 receptor [2] = biological target: T1, human GLP-1 receptor (Homo sapiens, UniProt P43220); assay: Competitive binding (IC50) on HEK293-hGLP-1R cells with radioligand [Nle^14, [^125I]Tyr(3-I)^40]exendin-4; parameters: Dr. Timothy Kieffer (University of British Columbia); host or cells: HEK293; conditions: for IC50 ± SD (result in words): ligand range 10^-11 to 10^-5 M
T1 sequence (P43220 24-463): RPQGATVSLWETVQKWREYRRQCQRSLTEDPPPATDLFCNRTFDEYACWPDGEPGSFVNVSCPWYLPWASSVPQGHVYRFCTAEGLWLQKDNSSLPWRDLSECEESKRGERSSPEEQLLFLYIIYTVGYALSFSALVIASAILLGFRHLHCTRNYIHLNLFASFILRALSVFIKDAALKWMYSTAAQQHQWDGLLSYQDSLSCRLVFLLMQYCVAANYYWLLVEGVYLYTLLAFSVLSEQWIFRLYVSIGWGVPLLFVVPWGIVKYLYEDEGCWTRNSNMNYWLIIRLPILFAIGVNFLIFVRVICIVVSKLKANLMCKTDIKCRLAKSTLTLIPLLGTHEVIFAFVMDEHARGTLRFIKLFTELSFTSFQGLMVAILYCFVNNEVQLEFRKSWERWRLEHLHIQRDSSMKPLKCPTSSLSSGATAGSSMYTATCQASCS
Experimental: Dr. Timothy Kieffer (University of British Columbia, Vancouver, Canada). Cells were cultivated in high glucose DMEM (25.0 mM D-glucose, 3.97 mM GlutaMAX; REF-number: 61965–026; Fisher Scientific GmbH, Schwerte, Germany) supplemented with 10% fetal bovine serum and 1 mM sodium pyruvate. Medium for stably transfected HEK293-hGLP-1R cells was constantly supplemented with 1 mg/mL Geneticin (G-418 Biochrom, Merck KgaA, Darmstadt, Germany) as selection antibiotic. The cell line was kept at 37 °C in a humidified 5% CO2 atmosphere. One day (24 ± 2 h) prior to all in vitro experiments, the cultivated HEK293-h-GLP-1R cells were harvested using a mixture of trypsin/ethylenediaminetetraacetic acid (0.05%/0.02%) in phosphate-buffered saline (PBS) (Gibco, Germany) and centrifuged at 1300 rpm (ca. 190×g) for 3 min at room temperature (Heraeus Megafuge 16, Thermo Fisher, Germany). After centrifugation, the supernatant was disposed and the cell pellet was resuspended in culture medium. Cells were counted with a Neubauer hemocytometer (Paul Marienfeld GmbH & Co. KG, Lauda-Königshofen, Germany) and seeded in 24-well plates. IC50 values were determined by transferring 1.50 × 10^5 cells/mL per well into 24-well plates.
Detailed information on affinity experiments is provided in the SI. In brief, competitive binding studies were determined on HEK293-hGLP-1R cells (1.50 × 10^5 cells in 1 mL/well) after incubation at 4 °C for 2 hours, using [^125I]Tyr(3-I)^40–3 (0.41 nM/well) as reference radioligand (n = 3).
Dr. Timothy J. Kieffer (University of British Columbia, Vancouver, Canada). Cells were cultivated in high glucose DMEM (25.0 mM D-glucose, 3.97 mM GlutaMAX; REF-number: 61965-026; Fisher Scientific GmbH, Schwerte, Germany) supplemented with 10% fetal bovine serum and 1 mM sodium pyruvate. Medium for stably transfected HEK293-hGLP-1R cells was constantly supplemented with 1 mg/mL Geneticin (G-418 Biochrom, Merck KgaA, Darmstadt, Germany) as selection antibiotic. The cell line was kept at 37 °C in a humidified 5% CO2 atmosphere. One day (24 ± 2 h) prior to all in vitro experiments, the cultivated cells were harvested using a mixture of trypsin/ethylenediaminetetraacetic acid (0.05%/0.02%) in phosphate-buffered saline (PBS) (Merck KgaA, Darmstadt, Germany) and centrifuged at 1300 rpm (ca. 190 × g) for 3 min at room temperature (Heraeus Megafuge 16, Thermo Fisher Scientific, Darmstadt, Germany). After centrifugation, the supernatant was disposed and the cell pellet was resuspended in culture medium. Cells were counted with a Neubauer hemocytometer (Paul Marienfeld GmbH & Co. KG, Lauda-Königshofen, Germany) and seeded in 24-well plates (Greiner Bio-One, Kremsmünster, Austria). IC50 values were determined by transferring 1.50 × 10^5 cells/mL per well into 24-well plates (Greiner Bio-One, Kremsmünster, Austria).
The culture medium was removed and the cells were washed with 500 µL of Hank’s balanced salt solution (HBSS) (Merck KGaA, Darmstadt, Germany), containing 1% bovine serum albumin (BSA) (Merck KGaA, Darmstadt, Germany). Afterwards, 200 µL of HBSS (1% BSA) were added to each well and equilibrated on ice (4 °C) for 15 min. 25 µL/well of either HBSS (1% BSA) (= control) or of solutions, containing the respective unlabeled ligand in increasing concentrations (10^-10 - 10^-4 M in HBSS) were added, followed by the addition of 25 µL of [Nle^14, [^125I]Tyr(3-I)^40]exendin-4 in HBSS (1% BSA) to each well. Experiments were carried out in triplicates for each concentration. The final concentrations of unlabeled ligand ranged from 10^-11 - 10^-5 M and the final radioligand concentration was 0.41 nM in all binding assays. The cells were incubated for two hours at 4 °C. Incubation was terminated by removal of the incubation medium. The cells were washed with 250 µL of HBSS (1% BSA) and the wash medium was combined with the respective supernatant. This fraction represents the amount of free radioligand. The cells were lysed by addition of 250 µL of 1 M aqueous NaOH. […]

human GLP-1 receptor [3] = biological target: T1, human GLP-1 receptor; assay: as above; parameters: Dr. Timothy Kieffer (University of British Columbia); host or cells: HEK293; conditions: w/o BSA, HBSS
[4] = Stability study of the reference radioligand stock solution (RCP by radio-RP-HPLC); type: physicochemical
Experimental: ^125I-labeling. The radioiodinated reference ligand [Nle^14, [^125I]Tyr(3-I)^40]exendin-4 ([^125I]Tyr(3-I)^40–3) was prepared via the Iodogen method (Salacinski et al., [1981]), with some minor modifications. […] The solution was transferred to a vial, which has been precoated with 15.0 μg Iodogen (34.7 nmol, 139 eq.). Afterwards, 15 ± 5 MBq [^125I] NaI (74 MBq/nmol, 3.7 GBq/mL in 40 mM NaOH, Hartmann Analytic, Braunschweig, Germany) (5.00 μL, 250 pmol, 1.00 eq.) were added, the reaction solution was incubated for 15 min at r.t. and 150 μL thereof were purified by radio-RP-HPLC (0% B (2 min) ➔ 0–37.5% B (3 min) ➔ 37.5% B (35 min) ➔ 38% B (10 min), Method A*, 1 mL/min) to afford 3.15 MBq (48.8% RCY, > 99% RCP) of product [^125I]Tyr(3-I)^40–3. The radioligand was stored in the HPLC solvent (stock solution) at − 80 °C until further use. The radioligand stock solution was used to a maximum of 14 days to ensure a RCP of > 92% (Table 1 in the Additional file 1) and replaced by freshly prepared radioligand afterwards. Prior to the in vitro experiments, the radioligand was dissolved in HBSS (with or w/o 1% BSA) to achieve a final concentration of 0.41 nM in the respective assays. *Method A: solvent A = water + 0.1% TFA, solvent B = acetonitrile + 2% water + 0.1% TFA.
Table 1: Stability study of reference radioligand [^125I]Tyr(3-I)^40]-3, (n = 1).

Molecule: NCCCC[C@H](N)C(=O)O [L-lysine]
decrease of kidney uptake of [^111In]In-DTPA-exendin-4 [1]: did not show any effect

Molecule: C[C@@H](O)[C@H](NC(=O)CNC(=O)[C@H](CCC(=O)O)NC(=O)C(C)(C)NC(=O)[C@@H](N)Cc1c[nH]cn1)C(=O)N[C@@](C)(Cc1ccccc1)C(=O)N[C@H](C(=O)N[C@@H](CO)C(=O)N[C@@H](CC(=O)O)C(=O)N[C@@H](CNC(=O)c1ccc([Si](F)(C(C)(C)C)C(C)(C)C)cc1)C(=O)N[C@@H](CCc1ccccc1)C(N)=O)[C@@H](C)O [Peptide 4, H-L-His-Aib-L-Glu-Gly-L-Thr-L-(α-Me)Phe-L-Thr-L-Ser-L-Asp-L-Dap(SiFA)-L-homoPhe-NH2]
IC50 (human GLP-1 receptor [2]): 2400 nM
IC50 ± SD (result in words) (human GLP-1 receptor [2]; w/ BSA (1% BSA)): no detectable affinity
maximal radioligand displacement (of maximal radioligand binding) (human GLP-1 receptor [3]): 61–69%

Molecule: C[C@@H](O)[C@H](NC(=O)CNC(=O)[C@H](CCC(=O)O)NC(=O)C(C)(C)NC(=O)[C@@H](N)Cc1c[nH]cn1)C(=O)N[C@@](C)(Cc1ccccc1F)C(=O)N[C@H](C(=O)N[C@@H](CO)C(=O)N[C@@H](CC(=O)O)C(=O)N[C@@H](CNC(=O)c1ccc([Si](F)(C(C)(C)C)C(C)(C)C)cc1)C(=O)N[C@@H](CCc1ccccc1)C(N)=O)[C@@H](C)O [Peptide 5, H-L-His-Aib-L-Glu-Gly-L-Thr-L-(α-Me)Phe(2-F)-L-Thr-L-Ser-L-Asp-L-Dap(SiFA)-L-homoPhe-NH2]
IC50 (human GLP-1 receptor [2]): 189 ± 35 nM
IC50 ± SD (result in words) (human GLP-1 receptor [2]; w/ BSA (1% BSA)): no detectable affinity
maximal radioligand displacement (of maximal radioligand binding) (human GLP-1 receptor [3]): 61–69%

Molecule: CC(C)C[C@H](NC(=O)[C@H](CNC(=O)c1ccc([Si](F)(C(C)(C)C)C(C)(C)C)cc1)NC(=O)[C@H](CO)NC(=O)[C@H](CO)NC(=O)[C@@H](NC(=O)[C@H](CC(=O)O)NC(=O)[C@H](CO)NC(=O)[C@@H](NC(=O)[C@](C)(Cc1ccccc1F)NC(=O)[C@@H](NC(=O)CNC(=O)[C@H](CCC(=O)O)NC(=O)C(C)(C)NC(=O)[C@@H](N)Cc1c[nH]cn1)[C@@H](C)O)[C@@H](C)O)C(C)C)C(=O)N[C@@H](CCC(=O)O)C(N)=O [Peptide 10, H-L-His-Aib-L-Glu-Gly-L-Thr-L-(α-Me)Phe(2-F)-L-Thr-L-Ser-L-Asp-L-Val-L-Ser-L-Ser-L-Dap(SiFA)- L-Leu-L-Glu-NH2] (H-H[Aib]EGT[αMePhe(2-F)]TSDVSS[Dap](Benzoyl(4-SiFtBu2))LE-NH2)
IC50 (human GLP-1 receptor [2]): 2950 ± 310 nM

Molecule: CC(C)C[C@H](NC(=O)[C@H](CNC(=O)c1ccc([Si](F)(C(C)(C)C)C(C)(C)C)cc1)NC(=O)[C@H](CO)NC(=O)[C@H](CCc1ccccc1)NC(=O)[C@@H](NC(=O)[C@H](CC(=O)O)NC(=O)[C@H](CO)NC(=O)[C@@H](NC(=O)[C@](C)(Cc1ccccc1F)NC(=O)[C@@H](NC(=O)CNC(=O)[C@H](CCC(=O)O)NC(=O)C(C)(C)NC(=O)[C@@H](N)Cc1c[nH]cn1)[C@@H](C)O)[C@@H](C)O)C(C)C)C(=O)N[C@@H](CCC(=O)O)C(N)=O [Peptide 11, H-L-His-Aib-L-Glu-Gly-L-Thr-L-(α-Me)Phe(2-F)-L-Thr-L-Ser-L-Asp-L-Val-L-homoPhe-L-Ser-L-Dap(SiFA)-L-Leu-L-Glu-NH2] (H-H[Aib]EGT[αMePhe(2-F)]TSDV[hPhe]S[Dap](Benzoyl(4-SiFtBu2))LE-NH2)
IC50 (human GLP-1 receptor [2]): 7120 ± 2470 nM

Molecule: H-L-His-Aib-L-Glu-Gly-L-Thr-L-(α-Me)Phe(2-F)-L-Thr-L-Ser-L-Asp-L-Val-L-Dap(SiFA)-NH2 [Peptide 9]
IC50 ± SD (result in words) (human GLP-1 receptor [2]; w/ and w/o BSA): no affinity was detected; also recorded: no detectable affinity n = 2 (w/ and w/o BSA)

Molecule: H-L-His-Aib-L-Glu-Gly-L-Thr-L-(α-Me)Phe(2-F)-L-Thr-L-Ser-L-Asp-NH2 [Peptide 7]
IC50 ± SD (result in words) (human GLP-1 receptor [2]; w/ and w/o BSA): no detectable affinity n = 2 (w/ and w/o BSA)

Molecule: H-L-His-Aib-L-Glu-Gly-L-Thr-L-(α-Me)Phe(2-F)-L-Thr-L-Ser-L-Asp-O2Oc-L/D-Dap(SiFA)-L-Leu-L-Glu-NH2 [Peptide 13]
IC50 ± SD (result in words) (human GLP-1 receptor [2]; w/ and w/o BSA): no radioligand displacement was observed; also recorded: no detectable affinity n = 2 (w/ and w/o BSA)

Molecule: H-L-His-Aib-L-Glu-Gly-L-Thr-L-(α-Me)Phe-L-Thr-L-Ser-L-Asp-L-Phe(4-I)-L-homoPhe-NH2 [Peptide 8]
IC50 ± SD (result in words) (human GLP-1 receptor [2]; w/ and w/o BSA): eliminated any detectable affinity; also recorded: no detectable affinity n = 2 (w/ and w/o BSA)

IC50 ± SD (result in words) (human GLP-1 receptor [2]; w/ BSA (1% BSA)): no detectable affinity n = 1 (w/ BSA)
Molecule: H-L-His-Aib-L-Glu-Gly-L-Thr-L-(α-Me)Phe-L-Thr-L-Ser-L-Asp-OH [Peptide 6]

RCP ([4]; 0 days after radioiodination, stock in HPLC solvent at −80 °C, n = 4): ≥ 95% (n = 4)
RCP ([4]; 4 days after radioiodination, stock in HPLC solvent at −80 °C): 95%
RCP ([4]; 9 days after radioiodination, stock in HPLC solvent at −80 °C): 95%
RCP ([4]; 16 days after radioiodination, stock in HPLC solvent at −80 °C): 92%
RCP ([4]; 20 days after radioiodination, stock in HPLC solvent at −80 °C): 82%
RCP ([4]; 24 days after radioiodination, stock in HPLC solvent at −80 °C): 82%
RCP ([4]; 29 days after radioiodination, stock in HPLC solvent at −80 °C): 78%
RCP ([4]; 36 days after radioiodination, stock in HPLC solvent at −80 °C): 78%
RCP ([4]; stock solution used to a maximum of 14 days, −80 °C): > 92%
Molecule: [Nle^14, [^125I]Tyr(3-I)^40]exendin-4 [[^125I]Tyr(3-I)^40-3]
